In patent publication US9797015B2, “Genetic variants associated with lithium response in bipolar disorder” (Academia Sinica, priority 2013, dated 2017):
Several values for one entry are separate records, joined by “and”; a condition that tells them apart may be missing. Equal values may be shown once.

Experiments:
Type in all cases: in vivo, human
[1] = system: bipolar I (BPI) disorder patients; experiment: Response to long-term lithium prophylaxis treatment, Alda Scale (retrospective, life chart; GWAS and replication groups)
Excerpt: We carried out a “discovery” GWAS, and two tests of replication. […] We genotyped each of the 1647 patients by array (see below).
To assess response to long-term lithium prophylaxis treatment in BPI disorder, we prepared a life chart with graphic depiction of lifetime clinical course for each of the BPI patients recruited before June 2012 (N=1761). […] We depicted this information graphically, based on integrated information gathered from direct interview with patients and their family members, interviews with in-charge psychiatrists, and a thorough medical chart review.
The phenotype of lithium response was assessed based on the life chart, using the Retrospective Criteria of Long-Term Treatment Response in Research Subjects with Bipolar Disorder developed by Martin Alda and Colleagues (Alda Scale). The Alda scale has two criteria. […] Criterion B (B1-B5, each rated as 0, 1 or 2 points) is used to establish whether there is a causal relationship between clinical improvement and the treatment. B1 and B2 indicate the recurrence risk off the lithium treatment [number (B1) and frequency (B2) of episodes]. B3 is a measure of the length of lithium treatment. B4 indicates compliance with lithium. B5 is a measure of concomitant psychotropic medication during periods of stability. The total score is obtained by subtracting the sum of the B scores from the A score.
In investigating a causal relationship between lithium treatment and clinical improvement of individual patients, it is important to ensure (i) comparability in clinical course between on-lithium and off-lithium periods (number, frequency and severity of episodes); (ii) satisfactory drug compliance, and (iii) the minimization of influence from additional medications (hypnotics, antidepressants, antipsychotics, and other mood stabilizers). We determined inclusion criteria accordingly, to minimize the misclassification of responders and non-responders.
See, e.g., Grof et al., J Clin Psychiatry 2002; 63:942-7; and Squassina et al, Pharmacogenomics 2011; 12:1559-69.

[2] = system: bipolar I (BPI) disorder patients; experiment: Follow-up study (second test of replication) of 24 patients on lithium monotherapy, Alda Scale; design: key to A − B (total score of Alda Scale): Alda total = A score minus sum of B1-B5 scores (each 0-2); conditions: for A − B (total score of Alda Scale): individual patients, follow-up 2-5 yrs
Excerpt: In a second test of replication, we genotyped an independent series of 24 patients who had received lithium monotherapy for at least 2 years, through May 2012. We based their inclusion on a life chart (see Phenotype Definition and Assessment below) constructed for all patients in the 1647-patient sample. Each of these 24 patients had good drug adherence to mood stabilizer(s) other than lithium prior to their commencement of lithium monotherapy but with unsatisfactory response.
The phenotype of lithium response was assessed based on the life chart, using the Retrospective Criteria of Long-Term Treatment Response in Research Subjects with Bipolar Disorder developed by Martin Alda and Colleagues (Alda Scale). The Alda scale has two criteria. Criterion A measures the extent of clinical improvement in illness activity and takes into account the frequency, duration, and severity of episodes during periods of lithium treatment considered adequate in duration and dosage, compared with the frequency, duration, and severity of episodes during periods off the lithium treatment, on a scale from 0 (no change, or exacerbation of disease severity) to 10 (complete remission). Criterion B (B1-B5, each rated as 0, 1 or 2 points) is used to establish whether there is a causal relationship between clinical improvement and the treatment. B1 and B2 indicate the recurrence risk off the lithium treatment [number (B1) and frequency (B2) of episodes]. B3 is a measure of the length of lithium treatment. B4 indicates compliance with lithium. B5 is a measure of concomitant psychotropic medication during periods of stability. The total score is obtained by subtracting the sum of the B scores from the A score.
(§1) For patients in the second test of replication, we carried out regular follow-up evaluations (usually monthly and at least once every 3 months), including assay of lithium to assess drug adherence, and a SCAN interview to assess clinical condition, at outpatient clinics for at least 2 years.

[3] = Reported lithium blood levels during prophylaxis therapy; conditions: study patients with good adherence to lithium prophylaxis therapy
Excerpt: To assess response to long-term lithium prophylaxis treatment in BPI disorder, we prepared a life chart with graphic depiction of lifetime clinical course for each of the BPI patients recruited before June 2012 (N=1761). This life chart included all manic, hypomanic, and depressive episodes with date of onset (year and month), duration, and severity (including the extent of functional disability, hospitalization, and the presence of psychotic features), all doses of and duration of treatment with psychotropics and mood stabilizers known have been prescribed, drug adherence recorded in medical chart for all visits at outpatient clinics, all recorded blood levels of mood stabilizers, and any adverse drug reactions. We depicted this information graphically, based on integrated information gathered from direct interview with patients and their family members, interviews with in-charge psychiatrists, and a thorough medical chart review. Based on this life chart, we determined whether individual patients had good drug adherence.
as §1

[4] = 394 bipolar I patients under lithium prophylaxis, B5 = 2 (prolonged antidepressant and/or antipsychotic and/or mood stabilizer)

**Q.** What does the source list for `[Li]` [lithium]?
**A.** Good response to treatment (A − B ≧ 6) ([1]; 394 bipolar I patients under lithium prophylaxis, B5 = 1 (low dose antidepressants and/or antipsychotics and/or prolonged sleep medication)): 124 (50.4) N(%); Good response to treatment (A − B ≧ 6) [1, 4]: 5 (5.0) N(%); Poor response to treatment (A − B < 6) [1, 4]: 96 (95.0) N(%); Good response to treatment (A − B ≧ 6) ([1]; 394 bipolar I patients under lithium prophylaxis, additional medication B5 = 0 (none except infrequent sleep medication)): 30 (63.8) N(%); Poor responders to treatment at cutoff 5/6 ([1]; study subjects with a B5 score of 2): 95.0%; total Alda score, range ([2]; carriers of the response alleles (N=16), good response): 8-10; A − B (total score of Alda Scale) ([2]; rs17026688 genotype CC): 3 (3×) and 2 (2×) and 0 (3×); A − B (total score of Alda Scale) ([2]; rs17026688 genotype CT): 10 (5×) and 9 (6×) and 8; A − B (total score of Alda Scale) ([2]; rs17026688 genotype TT): 9; total Alda score, range ([2]; non-carriers (N=8), poor response): 0-3; lithium blood levels [3]: ≥ 0.5 mM
